Where two headings read alike, the source gives them in different places.
Experiments:
Type in all cases: cell-based, human
[1] = tested on: breast cancer MCF-7 cell line; experiment: In vitro anti-proliferative activity, MTT assay; conditions: MCF-7, MTT
Procedure: The in vitro anti-proliferative activity of the newly prepared pyridine-ureas 8a–n was examined against breast cancer MCF-7 cell line. The assay was carried out, as triplicates, utilizing the 3-(4,5-dimethylthiazol-2-yl)-2,5-diphenyltetrazolium bromide (MTT) colorimetric assay as described by T. Mosmann. Doxorubicin and Sorafenib were included in this assay as a reference drug.
MCF-7 (human breast cancer cell line) and WI-38 (human lung fibroblast cell line), were obtained from American Type Culture Collection (Manassas, VA, USA). The cells were propagated in DMEM and supplemented with 10% heat-inactivated FBS (Hyclone), 10 μg/mL of insulin (Manufacturer, Sigma, St. Louis, MO, USA), and 1% penicillin-streptomycin. MTT assay was utilized to examine the in vitro anti-proliferative activity of the newly prepared ureas following the reported procedures. […] The data presented are the mean of at least three separate experiments.

NCI 58 cell line panel = experiment: NCI one-dose SRB assay, whole panel / subpanel summary; conditions: One Dose Mean Graph, 1.00E-5 Molar
Procedure: (§1) The structures of all the newly prepared pyridine-ureas 8a–n were submitted to the National Cancer Institute (NCI) Developmental Therapeutic Program. Eight compounds 8b, 8d, 8e, 8i, 8j and 8l–n were selected to be examined for their in vitro growth inhibitory activity. The anticancer assays were carried out according to the protocol of the Drug Evaluation Branch, NCI, Bethesda. The selected pyridine-ureas were tested at one dose primary anticancer assay against a panel of approximately 58 cancer lines (concentration 10^−5 M). The tested human cancer cell lines emerged from nine different cancer subtypes: leukemia, colon, melanoma, ovarian, lung, CNS, renal, breast and prostate cancers. The sulforhodamine B (SRB) protein assay was adopted to estimate the cell viability and growth. The results were reported as mean-graph of the percentage growth of the treated cells, and presented as percentage growth inhibition (GI%) caused by the test compounds (Table 2).
(§2) The anticancer assays were performed in accordance with the protocol of the Drug Evaluation Branch, NCI, Bethesda. A 48 h drug exposure protocol was used and sulforhodamine B (SRB) protein assay was applied to estimate the cell viability and growth, as reported earlier.

CCRF-CEM = experiment: NCI one-dose SRB assay (Leukemia)
Procedure: as §1, §2

HL-60(TB) = experiment: NCI one-dose SRB assay (Leukemia)
Procedure: as §1, §2

K-562 = experiment: NCI one-dose SRB assay (Leukemia)
Procedure: as §1, §2

MOLT-4 = experiment: NCI one-dose SRB assay (Leukemia)
Procedure: as §1, §2

RPMI-8226 = experiment: NCI one-dose SRB assay (Leukemia)
Procedure: as §1, §2

SR = experiment: NCI one-dose SRB assay (Leukemia)
Procedure: as §1, §2

COLO 205 = experiment: NCI one-dose SRB assay (Colon Cancer)
Procedure: as §1, §2

HCC-2998 = experiment: NCI one-dose SRB assay (Colon Cancer)
Procedure: as §1, §2

HCT-116 = experiment: NCI one-dose SRB assay (Colon Cancer)
Procedure: as §1, §2

HCT-15 = experiment: NCI one-dose SRB assay (Colon Cancer)
Procedure: as §1, §2

HT29 = experiment: NCI one-dose SRB assay (Colon Cancer)
Procedure: as §1, §2

KM12 = experiment: NCI one-dose SRB assay (Colon Cancer)
Procedure: as §1, §2

SW-620 = experiment: NCI one-dose SRB assay (Colon Cancer)
Procedure: as §1, §2

SF-268 = experiment: NCI one-dose SRB assay (CNS Cancer)
Procedure: as §1, §2

SF-295 = experiment: NCI one-dose SRB assay (CNS Cancer)
Procedure: as §1, §2

SF-539 = experiment: NCI one-dose SRB assay (CNS Cancer)
Procedure: as §1, §2

SNB-19 = experiment: NCI one-dose SRB assay (CNS Cancer)
Procedure: as §1, §2

SNB-75 = experiment: NCI one-dose SRB assay (CNS Cancer)
Procedure: as §1, §2

U251 = experiment: NCI one-dose SRB assay (CNS Cancer)
Procedure: as §1, §2

DU-145 = experiment: NCI one-dose SRB assay (Prostate)
Procedure: as §1, §2

PC-3 = experiment: NCI one-dose SRB assay (Prostate)
Procedure: as §1, §2

Substance: 1-(4-Chloro-4-(trifluoromethyl)cyclohexa-2,5-dien-1-yl)-3-(6-(3,4-dimethoxyphenyl)-2-methylpyridin-3-yl)urea [Compound 8l]
- IC50 ([1]; 48 h of incubation, read-out: IC50 48 h): 7.03 ± 0.61 µM
- IC50 ([1]; 72 h of incubation, read-out: IC50 72 h): 21.4 ± 2.03 µM
- Mean Growth Percent (NCI 58 cell line panel): 68.99%
- Percentage growth inhibition (GI%) (CCRF-CEM; 10 μM): 45%
- Growth Percent (CCRF-CEM; 1.00E-5 Molar): 55.04%
- Percentage growth inhibition (GI%) (HL-60(TB); 10 μM): 48%
- Growth Percent (HL-60(TB); 1.00E-5 Molar): 52.58%
- Percentage growth inhibition (GI%) (K-562; K-562, 10 μM): 51%
- Growth Percent (K-562; K-562, 1.00E-5 Molar): 49.47%
- Percentage growth inhibition (GI%) (MOLT-4; MOLT-4, 10 μM): 57%
- Growth Percent (MOLT-4; MOLT-4, 1.00E-5 Molar): 43.68%
- Percentage growth inhibition (GI%) (RPMI-8226; RPMI-8226, 10 μM): 57%
- Growth Percent (RPMI-8226; RPMI-8226, 1.00E-5 Molar): 43.88%
- Percentage growth inhibition (GI%) (SR; 10 μM): 40%
- Growth Percent (SR; 1.00E-5 Molar): 60.09%
- Percentage growth inhibition (GI%) (COLO 205; COLO 205, 10 μM): - (Only GI% higher than 10% are shown)
- Growth Percent (COLO 205; COLO 205, 1.00E-5 Molar): 93.52%
- Percentage growth inhibition (GI%) (HCC-2998; HCC-2998, 10 μM): - (Only GI% higher than 10% are shown)
- Growth Percent (HCC-2998; HCC-2998, 1.00E-5 Molar): 93.63%
- Percentage growth inhibition (GI%) (HCT-116; HCT-116, 10 μM): 55%
- Growth Percent (HCT-116; HCT-116, 1.00E-5 Molar): 45.30%
- Percentage growth inhibition (GI%) (HCT-15; HCT-15, 10 μM): 51%
- Growth Percent (HCT-15; HCT-15, 1.00E-5 Molar): 49.62%
- Percentage growth inhibition (GI%) (HT29; HT29, 10 μM): 44%
- Growth Percent (HT29; HT29, 1.00E-5 Molar): 56.20%
- Percentage growth inhibition (GI%) (KM12; KM12, 10 μM): 30%
- Growth Percent (KM12; KM12, 1.00E-5 Molar): 70.44%
- Percentage growth inhibition (GI%) (SW-620; SW-620, 10 μM): 10%
- Growth Percent (SW-620; SW-620, 1.00E-5 Molar): 90.92%
- Percentage growth inhibition (GI%) (SF-268; SF-268, 10 μM): 25%
- Growth Percent (SF-268; SF-268, 1.00E-5 Molar): 75.77%
- Percentage growth inhibition (GI%) (SF-295; SF-295, 10 μM): 29%
- Growth Percent (SF-295; SF-295, 1.00E-5 Molar): 71.54%
- Percentage growth inhibition (GI%) (SF-539; SF-539, 10 μM): 13%
- Growth Percent (SF-539; SF-539, 1.00E-5 Molar): 87.81%
- Percentage growth inhibition (GI%) (SNB-19; SNB-19, 10 μM): 22%
- Growth Percent (SNB-19; SNB-19, 1.00E-5 Molar): 78.75%
- Percentage growth inhibition (GI%) (SNB-75; SNB-75, 10 μM): 20%
- Growth Percent (SNB-75; SNB-75, 1.00E-5 Molar): 80.45%
- Percentage growth inhibition (GI%) (U251; U251, 10 μM): 45%
- Growth Percent (U251; U251, 1.00E-5 Molar): 55.26%
- Percentage growth inhibition (GI%) (DU-145; DU-145, 10 μM): 20%
- Growth Percent (DU-145; DU-145, 1.00E-5 Molar): 80.60%
- Percentage growth inhibition (GI%) (PC-3; PC-3, 10 μM): 67%
- Growth Percent (PC-3; PC-3, 1.00E-5 Molar): 33.54%

Reference: PMC6100082, “Pyridine-Ureas as Potential Anticancer Agents: Synthesis and In Vitro Biological Evaluation” (Molecules : A Journal of Synthetic Chemistry and Natural …, 2018)
